Data as given in patent publication US11891640B1, “Crop protection in algae by exogenous terpene expression” (priority 2021, dated 2024).

System: Brachionus plicatilis (rotifers)
Test: Cultivation assay of N. oceanica in the presence of rotifers (culture stability against predation)
Type: in vivo
Conditions: rotifer concentrations between 10-50/mL
Text: FIGS. 3A-3B show culture stability in the presence of predation by rotifers. Provided are graphs showing (A) a culture including wild type Nannochloropsis oceanica (N. oceanica) exposed to increasing Brachionus plicatilis (rotifers) concentrations and (B) a transformed culture including N. oceanica strain 24N having a […]-322581 (Hypoxylon sp. CI-4A, sesquiterpene synthase) gene. Cultivation assays of N. oceanica in the presence of rotifers, which are common algae grazers and culture-crash inducing agents, indicate up to 50% increased survival of the sesquiterpene producing cultures over controls, indicating potential for algae crop-protection applications. Additional details follow. FIGS. 3A-3B show culture stability against predation.

C=C(C)[C@@H]1CC=C2CCC[C@@H](C)[C@]2(C)C1 [aristolochene]
predation resistance: significantly increased predation resistance
